Test results reported in patent US20250109154A1, “LYSOPHOSPHATIDYLSERINE ANALOGUE, AND LYSOPHOSPHATIDYLSERINE ANALOGUE-CONTAINING PHAMACEUTICAL COMPOSITION FOR TREATING OR PREVENTING FIBROSIS” (THE UNIVERSITY OF TOKYO, priority 2022, published 2025).

What was measured:
[1] = test system: LX-2 cells (human hepatic stellate cells); assay: Expression of marker genes for fibrosing in LX-2 cells (quantitative real time PCR); type: cell-based; settings: 5 μM, co-cultured 48 hours, vs DMSO, standardized by GAPDH, FIG. 1
Experimental: LX-2 cells (human hepatic stellate cells) (sigma-aldrich, reference document: Gut 2005, 54 (1), 142-151) were seeded in 12-well tissue culture plates (5×10^4 cells/well) and cultured in Dulbecco's Modified Eagle's Medium (high glucose) (Thermo Fisher Scientific) together with 10% FBS (Fetal Bovine Serum) and 100× penicillin-streptomycin-glutamine (PSG) in a 5% CO2 humidified incubator at 37° C. After 48 hours, the cells were stimulated with dimethyl sulfoxide (DMSO), Compound (II), and Compound (III) (5 μM) (final concentration of DMSO was 0.02%) and co-cultured for another 48 hours. Thereafter, the cells were lysed using a lysis buffer (MACHEREY-NAGEL GmbH & Co. KG).
(§1) Total RNA of LX-2 cells was extracted using NucleoSpin RNA Plus kit (Takara Bio) according to the product protocol. Purified RNA was reverse transcribed using High-Capacity cDNA RT Kits (Thermo Fisher Scientific) according to the product protocol. PCR was performed using TB Green Premix Ex Taq II (Takara Bio) and monitored with a LightCycler96 (Roche Life Science). The number of transcripts was standardized by the number of GAPDHs, which are housekeeping genes.

LX-2 cells = assay: Immunostaining of αSMA and CollagenI in LX-2 cells; type: cell-based, human; settings: 3 μM, vs DMSO group, FIG. 2
Experimental: LX-2 cells were cultured in the same manner as in Example 1, except that the concentration of Compound (II) was changed to 3 μM.
LX-2 cells were fixed in Mildform (registered trademark) 10N (FUJIFILM Wako Pure Chemical Corporation) at room temperature for 10 minutes and washed with PBS. Membranes were permeabilized using 0.2% Triton X-100. The cells were blocked at room temperature for one hour using 5% skim milk or 0.3% BSA/PBS. After washing with PBS, αSMA (Dako), CollagenI (Abcam), and Hoechst33342 (Sigma-Aldrich) were each added as a first antibody, and the mixture was reacted overnight at 4° C. On the next day, the cells were washed with PBS and then reacted with Invitrogen Alexa Fluor (theromo Fisher) as a second antibody. The cells were observed under a fluorescence microscope (Keyence BZ-X810).

[2] = test system: quiescent hepatic stellate cell-like cells (qHSC-like cells); assay: Expression of marker genes for fibrosing in quiescent hepatic stellate cell-like cells derived from human iPS cells (quantitative real time PCR); type: cell-based; settings: 1 or 2 μM, 4 hours of incubation, FIG. 3
Experimental: Quiescent hepatic stellate cell-like cells (qHSC-like cells) were induced by the methods described in Koui et al., Stem Cell Reports 2021, PCT/JP2020/006147, and PCT/JP2016/58411. qHSC-like cells derived from ACTA2-RFP […] iPS cells were seeded in a collagen-coated 12-well plate at a density of 7×10^4 cells/well in Stempro-34 SFM medium (Gibco medium, theromo Fisher) supplemented with Y27632 (10 μM) and 100×PSG. After 24 hours of culture, Compound (II) was dissolved in Stempro-34 SFM medium (100×PSG), and then the solution was added such that the final concentration of Compound (II) was 1 or 2 μM. After 4 hours of incubation, the cells were lysed, and total RNA was extracted using NucleoSpin RNA Plus kit (Takara Bio).
as §1, with “derived from iPS cell-derived qHSC” for “of LX-2 cells”

[3] = test system: mouse model of liver fibrosis; assay: Mouse model of liver fibrosis (thioacetamide): liver immunohistochemistry and quantitative real time PCR; type: in vivo, C57BL/6J mice; settings: TAA mouse, 20 mg/kg subcutaneously every 24 hours for 14 days
Experimental: Seven-week-old C57BL/6J mice were purchased from CLEA Japan, Inc. (Tokyo, Japan). All animals were reared in a standard specific pathogen-free room in the animal facility of the Institute for Quantitative Biosciences, University of Tokyo. For a mouse model of liver fibrosis, thioacetamide (TAA) was administered together with drinking water (0.06% v/v), starting 7 weeks before the administration of the compound. After 7 weeks of rearing with TAA-containing water, a vehicle (200 μL of PBS, containing 5% DMSO) or 20 mg/kg (200 μL of PBS, containing 5% DMSO) of Compound (II) was subcutaneously administered every 24 hours for a total period of 14 days. The mice were sacrificed 24 hours after the last injection.
Liver tissue samples were fixed overnight at 4° C. with Zamboni's fixative (FUJIFILM Wako Pure Chemical Corporation) or Mildform (registered trademark) 10N (FUJIFILM Wako Pure Chemical Corporation). For immunofluorescence staining, the liver tissue fixed with Zamboni's fixative was washed with PBS, and the medium was replaced with a 30% (w/v) sucrose solution. Frozen tissue was prepared by embedding the tissue in a Tissue-Tek (registered trademark) O.C.T. compound (Sakura Finetek Japan) and freezing the resultant in liquid nitrogen. Liver cryosections (8 μm) were mounted on slide glasses, rehydrated, and autoclaved in Target Retrieval Solution (lx, Dako) at 90° C. for 20 min for epitope retrieval. The sections were blocked with 0.3% BSA/PBS for 1 hour at room temperature. After washing with PBS, αSMA (Dako), CollagenI (Bio-Rad Laboratories, Inc.), Ki67 (Santa Cruz), and Hoechst33342 (Sigma-Aldrich) were each added as a first antibody, and the mixture was reacted overnight at 4° C. On the next day, the sections were washed with PBS and then reacted with Invitrogen Alexa Fluor (theromo Fisher) as a second antibody. The section specimens were hermetically sealed and observed with a fluorescence microscope (Keyence BZ-X810). The range of positive CollagenI was quantified using Ratiocollagen I=Areacollagen I/Areatotal.
as §1, with “mouse liver tissue” for “LX-2 cells”

[4] = test system: primary cultured human renal fibroblasts; assay: Expression of marker genes for fibrosing in primary cultured human renal fibroblasts (quantitative real time PCR); type: cell-based; settings: 48 hours
Experimental: (§2) Primary cultured human renal fibroblasts (ATCC), primary cultured human lung fibroblasts (Cosmo Bio), or primary cultured human pancreatic fibroblasts (K.A.C.) were each seeded in 12-well tissue culture plates (5×10^4 cells/well) and cultured in Minimum Essential Medium (lx) (Gibco, Thermo Fisher Scientific) together with 10% FBS (Fetal Bovine Serum) and 100× antifungal antibiotic solution (Sigma-Aldrich) in a 5% CO2 humidified incubator at 37° C. After 48 hours, the cells were stimulated with dimethyl sulfoxide (DMSO), Compound (II), and/or Compound (III) (5 μM) (final concentration of DMSO was 0.02%) and co-cultured for another 48 hours. Cells that are activated by TGFβ1 (FUJIFILM Wako Pure Chemical Corporation), a fibroblast growth and activation factor, were stimulated with TGFβ1 (20 ng/ml) 72 hours after seeding, and after 48 hours, the cells were stimulated with dimethyl sulfoxide (DMSO), Compound (II), and/or Compound (III) (5 μM) (final concentration of DMSO was 0.02%) and co-cultured for another 48 hours. Thereafter, the cells were lysed using a lysis buffer (MACHEREY-NAGEL GmbH & Co. KG).
(§3) Quantitative real-time PCR analysis was performed in the same manner as in Example 5.

[5] = test system: primary cultured human lung fibroblasts; assay: Expression of marker genes for fibrosing in primary cultured human lung fibroblasts (quantitative real time PCR); type: cell-based; settings: 48 hours
Experimental: as §2, §3

[6] = test system: primary cultured human pancreatic fibroblasts; assay: Expression of marker genes for fibrosing in primary cultured human pancreatic fibroblasts (quantitative real time PCR); type: cell-based; settings: 48 hours
Experimental: as §2, §3

[7] = test system: primary cultured human skin fibroblasts; assay: Expression of marker genes for fibrosing in primary cultured human skin fibroblasts (quantitative real time PCR); type: cell-based; settings: 48 hours
Experimental: Primary cultured human skin fibroblasts (Tokyo University School of Medicine) were seeded in 12-well tissue culture plates (7×10^4 cells/well) and cultured in Dulbecco's Modified Eagle's Medium (high glucose) together with 10% FBS (Fetal Bovine Serum) and 100× penicillin-streptomycin-glutamine (PSG) in a 5% CO2 humidified incubator at 37° C. After 48 hours, the cells were stimulated with dimethyl sulfoxide (DMSO), Compound (II), and Compound (III) (5 μM) (final concentration of DMSO was 0.02%) and co-cultured for another 48 hours. Cells activated with TGFβ1 (FUJIFILM Wako Pure Chemical Corporation) were stimulated with TGFβ1 (20 ng/ml) 72 hours after seeding, and after 48 hours, the cells were stimulated with dimethyl sulfoxide (DMSO), Compound (II), and Compound (III) (5 μM) (final concentration of DMSO was 0.02%) and co-cultured for another 48 hours. Thereafter, the cells were lysed using a lysis buffer (MACHEREY-NAGEL GmbH & Co. KG).
as §3

[8] = not stimulated with TGFβ1, 5 μM, FIG. 7
[9] = stimulated with TGFβ1 (20 ng/ml), 5 μM, FIG. 8
[10] = not stimulated with TGFβ1, 5 μM, FIG. 9
[11] = stimulated with TGFβ1 (20 ng/ml), 5 μM, FIG. 10
[12] = not stimulated with TGFβ1, 5 μM, FIG. 11
[13] = stimulated with TGFβ1 (20 ng/ml), 5 μM, FIG. 12
[14] = not stimulated with TGFβ1, 5 μM, FIG. 13
[15] = stimulated with TGFβ1 (20 ng/ml), 5 μM, FIG. 14

SMILES	expression levels of the marker genes for fibrosing (ACTA2, COL1A1, COL3A1) [1]	expression of αSMA and CollagenI (immunostaining) (LX-2 cells)	expression levels of the marker genes for fibrosing (ACTA2, COL1A1, COL3A1) [2]	positive range of CollagenI in liver tissue sections (Area collagen I/Area total) ([3]; vs vehicle, FIG. 4)	Ki67 staining of liver tissue sections (cell proliferation capability) ([3]; vs vehicle, FIG. 5)	expression of αSMA and CollagenI in liver tissue sections (immunostaining) ([3]; vs vehicle, FIG. 5)	expression levels of the marker genes for fibrosing (COL1A1, COL3A1) in liver tissue ([3]; FIG. 6)	expression levels of the marker genes for fibrosing (ACTA2, COL1A1, COL3A1) [4, 8]	expression levels of the marker genes for fibrosing (ACTA2, COL1A1, COL3A1) [4, 9]	expression levels of the marker genes for fibrosing (ACTA2, COL1A1, COL3A1) [5, 10]	expression levels of the marker genes for fibrosing (ACTA2, COL1A1, COL3A1) [5, 11]	expression levels of the marker genes for fibrosing (ACTA2, COL1A1, COL3A1) [6, 12]	expression levels of the marker genes for fibrosing (ACTA2, COL1A1, COL3A1) [6, 13]	expression levels of the marker genes for fibrosing (ACTA2, COL1A1, COL3A1) [7, 14]	expression levels of the marker genes for fibrosing (ACTA2, COL1A1, COL3A1) [7, 15]
CC(C)(C)c1cc(-c2ccc(Oc3ccccc3CCC(=O)OCCCOP(=O)(O)OCC(N)C(=O)O)cc2)cc(C(C)(C)C)c1 (stereo not drawn) [Compound (II)]	decreased	suppressed	decreased	small	larger area stained in red	suppressed	decreased	decreased	decreased	decreased	decreased	decreased	decreased	decreased	decreased
NC(COP(=O)(O)OCCCOC(=O)CCc1ccccc1Oc1ccc(-c2cc(-c3ccccc3)cc(-c3ccccc3)c2)cc1)C(=O)O (stereo not drawn) [Compound (III)]	decreased	–	–	–	–	–	–	decreased	decreased	decreased	decreased	decreased	decreased	decreased	decreased
